In US8778941B2, “TRPM8 antagonists and their use in treatments” (AMGEN Inc., priority 2011, dated 2014):
pIC50: −log10 of the molar value.

Target: T1, human TRPM8 (Homo sapiens, UniProt Q7Z2W7)
T1 construct: expressed in transfected cells; host or cells: Chinese hamster ovary (CHO) cells, T-REx tetracycline-inducible expression system (Invitrogen), co-transfected with pcDNA3.1 jellyfish aequorin
Assay: Luminescence readout assay for measuring intracellular calcium (aequorin), hTRPM8 antagonism
Type: cell-based
Settings: CHO cell line expressing human TRPM8 and aequorin; activation by icilin, L-menthol or cold buffer (table does not say which)
Description: Luminescence Readout Assay for Measuring Intracellular Calcium.
A stable Chinese hamster ovary cell line expressing human TRPM8 was generated using tetracycline inducible T-REx™ expression system from Invitrogen, Inc. (Carlsbad, Calif.). […] Twenty four hours before the assay, cells were seeded in 96-well plates and TRPM8 expression was induced with 0.5 μg/mL tetracycline. […] Potential antagonists were added 2.5 min prior to the addition of agonist, […], 100 µM L-menthol, or 1 min prior to the addition of cold buffer (<10° C.). The luminescence was measured by a CCD camera based FLASH-luminometer built by Amgen, Inc. A cooling device attached to FLASH luminometer was used for cold activation.

T1 sequence (Q7Z2W7 whole entry): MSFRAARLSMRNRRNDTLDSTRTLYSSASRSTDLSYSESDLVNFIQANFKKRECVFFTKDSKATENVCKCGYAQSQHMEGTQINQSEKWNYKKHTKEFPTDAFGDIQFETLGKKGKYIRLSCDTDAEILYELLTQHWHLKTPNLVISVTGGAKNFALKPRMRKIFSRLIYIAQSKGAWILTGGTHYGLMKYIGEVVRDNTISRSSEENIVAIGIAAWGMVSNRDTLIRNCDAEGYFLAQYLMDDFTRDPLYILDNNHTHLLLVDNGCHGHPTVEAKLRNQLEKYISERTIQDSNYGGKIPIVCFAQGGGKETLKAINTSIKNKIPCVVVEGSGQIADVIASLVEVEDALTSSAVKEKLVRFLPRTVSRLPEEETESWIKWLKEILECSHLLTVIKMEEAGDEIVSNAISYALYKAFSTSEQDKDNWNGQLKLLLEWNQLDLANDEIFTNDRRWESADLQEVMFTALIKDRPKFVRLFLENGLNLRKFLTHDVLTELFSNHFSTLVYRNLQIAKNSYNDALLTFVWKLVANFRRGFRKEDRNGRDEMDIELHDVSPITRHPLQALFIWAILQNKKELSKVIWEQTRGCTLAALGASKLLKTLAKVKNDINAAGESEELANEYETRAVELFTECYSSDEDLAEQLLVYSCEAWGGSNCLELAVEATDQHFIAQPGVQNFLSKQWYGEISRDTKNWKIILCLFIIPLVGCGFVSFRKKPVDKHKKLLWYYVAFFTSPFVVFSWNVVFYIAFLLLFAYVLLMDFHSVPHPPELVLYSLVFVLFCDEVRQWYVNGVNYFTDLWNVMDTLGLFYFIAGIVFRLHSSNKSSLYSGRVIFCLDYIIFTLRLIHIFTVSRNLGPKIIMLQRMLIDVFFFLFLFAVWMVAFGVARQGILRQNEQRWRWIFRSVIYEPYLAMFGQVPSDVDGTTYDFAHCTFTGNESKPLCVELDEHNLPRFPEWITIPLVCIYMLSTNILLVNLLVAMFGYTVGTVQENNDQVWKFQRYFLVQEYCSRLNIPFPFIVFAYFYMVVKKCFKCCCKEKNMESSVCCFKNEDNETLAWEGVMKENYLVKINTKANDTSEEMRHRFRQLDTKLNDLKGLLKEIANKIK

pIC50 | Compound
6.48 | O=C(N[C@@H](c1ccc(C(F)(F)F)c(F)c1)c1ncccc1C(F)(F)F)N1CCOCC1 [Example 167, (S)—N-((3-Fluoro-4-(trifluoromethyl)phenyl)(3-(trifluoromethyl)pyridin-2-yl)methyl)morpholine-4-carboxamide 2,2,2-trifluoroacetate]
6.29 | O=C(N[C@@H](c1ccc(OC(F)(F)F)c(F)c1)c1ncccc1F)OC1COC1 [Example 177, (S)-oxetan-3-yl ((3-fluoro-4-(trifluoromethoxy)phenyl)(3-fluoropyridin-2-yl)methyl)carbamate]
6.30 | CCOC(=O)NC(=O)N[C@@H](c1ccc(C(F)(F)F)cc1)c1ncccc1C(F)(F)F [Example 81]
6.84 | COc1ccc([C@H](NC(=O)Nc2cccnc2)c2ncccc2C(F)(F)F)cc1F [Example 5, (S)-1-((3-fluoro-4-methoxy-phenyl)(3-(trifluoro-methyl)-pyridin-2-yl)-methyl)-3-(pyridin-3-yl)-urea]
5.43 | CC(=O)c1ccc(NC(=O)N[C@@H](c2ccc(C(F)(F)F)cc2)c2ncccc2C(F)(F)F)cc1 [Example 138, (S)-1-(4-acetylphenyl)-3-((4-(trifluoro-methyl)-phenyl)(3-(trifluoro-methyl)-pyridin-2-yl)-methyl)urea (2,2,2-trifluoro-acetate)]
6.59 | O=C(Nc1cccnc1)N[C@@H](c1cnc2ccccc2c1)c1ncccc1C(F)(F)F [Example 6, (S)-1-(pyridin-3-yl)-3-(quinolin-3-yl(3-(trifluoro-methyl)-pyridin-2-yl)-methyl)urea]
7.08 | O=C(Nc1cccnc1)N[C@@H](c1ccc(C(F)(F)F)c(F)c1)c1ccccc1C(F)(F)F [Example 121, (S)-1-((3-fluoro-4-(trifluoro-methyl)-phenyl)(2-(trifluoro-methyl)-phenyl)-methyl)-3-(pyridin-3-yl)-urea]
6.06 | CCOC(=O)CCCNC(=O)N[C@@H](c1ccc(C(F)(F)F)cc1)c1ncccc1C(F)(F)F [Example 68, (S)-ethyl 4-(3-((4-(trifluoro-methyl)-phenyl)(3-(trifluoro-methyl)-pyridin-2-yl)-methyl)-ureido)-butanoate (2,2,2-trifluoro-acetate)]
6.74 | O=C(Nc1ccnc2ccccc12)N[C@@H](c1ccc(C(F)(F)F)cc1)c1ncccc1C(F)(F)F [Example 60, (S)-1-(quinolin-4-yl)-3-((4-(trifluoro-methyl)-phenyl)(3-(trifluoro-methyl)-pyridin-2-yl)-methyl)urea]
5.69 | O=C1CCC(OC(=O)N[C@@H](c2ccc(OC(F)(F)F)c(F)c2)c2ncccc2F)CN1 (stereo partly drawn) [Example 178, 6-Oxopiperidin-3-yl((S)-(3-fluoro-4-(trifluoromethoxy)phenyl)(3-fluoropyridin-2-yl)methyl)carbamate]
6.28 | COC(=O)c1cc(NC(=O)N[C@@H](c2ccc(C(F)(F)F)cc2)c2ncccc2C(F)(F)F)cc(C(=O)OC)c1 [Example 103, (S)-dimethyl 5-(3-((4-(trifluoro-methyl)-phenyl)(3-(trifluoro-methyl)-pyridin-2-yl)-methyl)-ureido)-isophthalate (2,2,2-trifluoro-acetate)]
5.39 | O=C(Nc1ccc2occc2c1)N[C@@H](c1ccc(C(F)(F)F)cc1)c1ncccc1C(F)(F)F [Example 39, (S)-1-(benzofuran-5-yl)-3-((4-(trifluoro-methyl)-phenyl)(3-(trifluoro-methyl)-pyridin-2-yl)-methyl)urea (2,2,2-trifluoro-acetate)]

Compound | pIC50
O=C(NC(=O)Oc1ccccc1)N[C@@H](c1ccc(C(F)(F)F)cc1)c1ncccc1C(F)(F)F [Example 35, (S)-1-(phenyl-formate)-3-((4-(trifluoro-methyl)-phenyl)(3-(trifluoro-methyl)-pyridin-2-yl)-methyl)urea (2,2,2-trifluoro-acetate)] | 5.77
